# Source: US20250255791A1, “POWDER COSMETIC CONTAINING ULTRAVIOLET WAVELENGTH-CONVERTING SUBSTANCE, AND METHOD FOR PRODUCING SAME” (Shiseido Company, Ltd., priority 2019, published 2025)
# Key:
# [1] = system: Human dermal fibroblasts; experiment: Experiment 2: influence of C-phycocyanin concentration and UV intensity on cell activity (AlamarBlue); type: cell-based; conditions: UV 0-100 mJ/cm^2, FIG. 3
# Description: (§1) A cell sample was prepared as follows: 1. Human dermal fibroblasts and human skin keratinocytes purchased from Kurabo Industries Ltd. were used. A cell suspension (1 mL) stored in liquid nitrogen was thawed in a water bath (37° C.) to an extent that small ice pellets remained, and then diluted with 9 mL of warm medium. 2. The diluted suspension was mixed gently and then transferred to a T75 flask and incubated overnight at 37° C. 3. The next day, the medium was replaced with 10 mL of fresh medium. 4. The medium was replaced periodically (once every 2 days for fibroblasts and once every 2 to 3 days for keratinocytes) and cell proliferation was continued. Meanwhile, the cells were observed using a microscope, and it was confirmed that the cells grew in the correct form. 5. After the cells reached about 80% confluence, the cells were passaged. The cells were passaged by washing the cells once with 10 mL of warm PBS, adding 5 mL of warm trypsin to a T75 flask, covering the bottom of the flask with a trypsin solution, followed by aspirating at room temperature for 1 minute. 6. The flask was allowed to stand in an oven at 37° C. for (maximum) 2 minutes for fibroblasts and (maximum) 7 minutes for keratinocytes. The cells were observed using a microscope and confirmed to be small and oval. 7. Thereafter, the side of the T75 flask was lightly tapped to release the cells. […]
# [2] = system: Human dermal fibroblasts; experiment: Experiment 3: restoration of cell activity decreased by prior UV irradiation (AlamarBlue); type: cell-based; conditions: pre-irradiation 400 mJ/cm^2 without substance, then UV 0-200 mJ/cm^2 through 0.4% or 2% solution; FIG. 5
# Description: as §1
substance,measurement,setting,value
C-phycocyanin,cell activity (relative fluorescence intensity) on UV irradiation,[1]; 0.4% C-phycocyanin solution,the decrease in cell activity was suppressed
same,cell activity (relative fluorescence intensity) on UV irradiation versus no UV irradiation,[1]; 2% C-phycocyanin solution,the cell activity was even increased
same,cell activity of cells whose activity was once decreased by UV irradiation,[2],cell activity was recovered
